Counter-ions that a name gives are not always drawn. Like-named read-outs stand apart in the source and are kept apart here. Values belong to the molecule of their own block, whether it stands above or below them.
How the values were obtained:
[1] = tested on: HSO3^−; test: HSO3^− concentration in the cecum; assay type: in vivo; details: mice
Procedure: Mice were orally administered APS reductase inhibitor bromocriptine mesylate (20 mg/kg, p.o.) or Na2SO4 (200 mg/kg, p.o.) or saline solution 1 week before AP treatment (a single dose of AP at 100 mg/kg, p.o.). After 360 min of AP treatment, all mice were euthanized, and tissue samples were collected for subsequent analysis. In specific cases, mice were orally administered D. piger suspension (0.2 mL, 1 × 10^9 CFU/mL) or saline solution 2 weeks before AP treatment (a single dose of AP at 100 mg/kg, p.o.).
(§1) For the determination of APS reductase concentration, the supernatant from mouse cecum contents and the D. piger strain were assessed using microorganism APS reductase elisa assay kit (Shanghai Senxingyan Biotechnology Co., Ltd., China), following the instructions provided with the kit. For the determination of HSO3^− concentration, cecum contents from mice or rats were weighed and homogenized in five volumes of normal saline (based on tissue weight). The homogenate was then subjected to centrifugation at 13,000 rpm and 4°C for 15 min. The supernatant (or perfusate) was collected and mixed with 0.2% formaldehyde, 0.05% basic fuchsin, and 0.01% EDTA-Na2 in a ratio of 1:1:1:9 under acidic conditions. To establish a standard curve, different concentrations of NaHSO3 were used. Subsequently, the absorbance of the resulting solutions was measured at a wavelength of 560 nm after 40 min.

[2] = Tissue distribution of AP and APM in rats; assay type: in vivo
Procedure: (§2) Control and ABX rats were orally administered a single dose of AP at 120 mg/kg. Control, ABX and germ-free C57BL/6J mice were orally administered a single dose of AP at 100 mg/kg. After 90 min of AP administration, all animals were euthanized, and blood and tissue samples were collected for subsequent analysis.
(§3) An ACQUITY^TM UPLC-MS/MS system equipped with an ACQUITY^TM UPLC BEH C18 Column (50 × 2.1 mm I.D., 1.7 μm, Waters, Milford, MA, USA) was utilized for the quantification of AP and APM as previously described.[47] Briefly, the detection samples (50 μL) were mixed with 50 μL of IS (50 ng/mL). AP and APM were extracted by 400 μL cold methanol. Supernatants were dried under nitrogen stream. Then, the residue was dissolved with 50% methanol in water, centrifuged for 30 min at 13,000 rpm, and 10 µL of the supernatant was subjected to UPLC-MS/MS analysis. The mobile phases consisted of eluent A (water) and eluent B (methanol) with a gradient elution as follows: 0–0.8 min, 10% B; 0.8–1.2 min, 10–90% B; 1.2–5.0 min, 90% B; 5.0–5.5 min, 90–10% B; 5.5–7.0 min, 10% B. The flow rate was 0.3 mL/min and the injection volume of all samples was 10 μL. The quantification of AP, APM and IS was performed by UPLC-MS/MS using an MRM method with the transitions of m/z 349.1→m/z 287.2 for AP, m/z 413.2→m/z 287.2 for APM, m/z 269→m/z 133 for IS.
(§4) AP was administered intravenously and orally to detect the production of the C-sulfonate metabolite APM. In tissue distribution experiment, rats were given AP intravenously (24 mg/kg) or orally (120 mg/kg), while mice received AP intravenously (20 mg/kg) or orally (100 mg/kg). After a 90-minute interval, the animals were sacrificed, and their liver, kidneys, small intestine, and colon were collected for analysis. In pharmacokinetic studies, rats were administered 24 mg/kg of AP intravenously or 120 mg/kg of AP by oral gavage. Blood samples were collected at predetermined time intervals (0, 5, 10, 20, 30, 40, 60, 90, 120, 180, 240, 360, and 480 min), as described, to detect the content of AP and APM by UPLC-MS/MS.

[3] = Tissue distribution of AP and APM in mice; assay type: in vivo
Procedure: as §2
After 360 min of AP treatment, all mice were euthanized, and tissue samples were collected for subsequent analysis. […]
as §3, §4

[4] = AP incubation with duodenal perfusate; assay type: in vitro ADME, rat; details: AP 40 μM
Procedure: To investigate whether HSO3^- is the essential ligand for the C-sulfonate metabolism of AP, duodenal perfusate of SD rat was collected according to the method described in the literature^5. The duodenal perfusate was filtered by 0.22 μm Millex® needle filter, ultrafiltered by Amicon® Ultra filter or placed in an autoclave at 121°C for 2 hours, and then incubated with AP (40 μM) in vitro for 30, 60, 90 and 120 min. In another experiment, duodenal perfusate was autoclaved and then combined with HSO3^- (80 μM) and incubated with AP (40 μM) in vitro for 120 min. At the end of the incubation, 100 μL of ice-cold acetonitrile was quickly added to terminate the reaction. After centrifugation at 13000 rpm for 30 min, the supernatant was collected for UPLC-MS/MS analysis.

[5] = design: method as in PMID 21721007; details: AP incubated with rat duodenal perfusate; cited from earlier work
[6] = design: method as in PMID 36809835, PMID 34142342; details: dose-dependent increase; cited from earlier work
[7] = tested on: intestinal flora of mice; test: Co-culturing AP with cecum samples from mice; assay type: in vitro ADME; details: bromocriptine mesylate 20 μg/mL
Procedure: (§5) The cecum contents from mice were collected and mixed with sterilized anaerobic medium in a ratio of 1.0 g to 10 mL, with gentle agitation. After filtered, the mixed medium containing the intestinal flora was placed in an anaerobic environment and preincubated at 37°C for 30 min before use. Mixed medium with or without APS reductase inhibitor bromocriptine mesylate (20 μg/mL) was incubated with AP (10 μg/mL), while autoclaved mixed medium without APS reductase inhibitor served as the control. Incubation was performed in a shaking incubator at 37°C for 6 h, with strict maintenance of anaerobic condition throughout the process.[44] Similarly, D. piger (0.2 mL, 1 × 10^8 CFU/mL) with or without inhibitor, was incubated with AP for 0, 3, 6, and 12 h, with autoclaved D. piger without inhibitor serving as the control. The reaction was terminated by adding cold methanol contained IS. And then samples were analyzed by UPLC-MS/MS to detect the concentrations of AP and APM. Concentrations of APS reductase and HSO3^− were also determined at the end of incubation.
as §1

[8] = tested on: D. piger; assay type: in vitro ADME, Desulfovibrio piger; details: D. piger with inhibitor
Procedure: as §5, with “The reaction was terminated by adding cold methanol contained IS.” left out
For the determination of APS reductase concentration, the supernatant from mouse cecum contents and the D. piger strain were assessed using microorganism APS reductase elisa assay kit (Shanghai Senxingyan Biotechnology Co., Ltd., China), following the instructions provided with the kit. […] Subsequently, the absorbance of the resulting solutions was measured at a wavelength of 560 nm after 40 min.

[9] = tested on: APS reductase; test: APS reductase level in feces by qPCR; assay type: in vivo; details: mice feces, bromocriptine mesylate 20 mg/kg p.o.
Procedure: Total RNA from frozen livers of Vehicle, AP (200 mg/kg, i.p.), ANIT (50 mg/kg), and ANIT+AP (200 mg/kg, i.p.) groups was extracted using the Animal Total RNA Isolation Kit (FOREGENE, China). cDNA was synthesized using a Color Reverse Transcription Kit (EZBioscience, Roseville, CA, USA). qPCR was performed using SYBR green/Rox qPCR master mix (EZBioscience, Roseville, CA, USA), according to the manufacturer’s instruction. The expression of target genes was normalized to β-actin, and fold changes were calculated using 2^–ΔΔCT method. For bacterial identification, genomic DNA of fecal flora was isolated using the TIANamp Stool DNA Kit (TIANGEN, Beijing, China) and qPCR was performed. The relative abundance and expression of Desulfovibrio spp., D. piger and APS reductase were normalized to the amounts of total bacteria (16S). All primers were synthesized by Tsingke Biotechnology Co., Ltd. (Beijing, China) and were listed in Supplementary Table S1.

[10] = Safety of APS reductase inhibitor (liver, renal, blood lipid indicators); assay type: in vivo; details: mice, 20 mg/kg orally for 14 days
Procedure: Supplementary Figure 5. […] (A-D) Liver function indicators including ALT, AST, TBA, and TBIL. (E-G) Renal function indicators including CREA, UREA, and UA. (H-K) Blood lipid indicators including TG, TC, HDL-C, and LDL-C. Inhibitor refers to the treatment with the APS reductase inhibitor bromocriptine mesylate at a dosage of 20 mg/kg, administered orally for 14 days in mice. Data are presented as mean ± SEM (n = 8 per group).

Compound: O=S(=O)([O-])[O-].[Na+].[Na+] [Na2SO4, sodium sulfate]
HSO3^− content in the cecum ([1]; Na2SO4 200 mg/kg p.o.): significant increase

levels of APM in plasma and tissues ([2]; ABX-treated rats vs Control, AP 120 mg/kg oral): reduced levels | APM in all tissues ([2]; rats, oral administration of AP (120 mg/kg)): significant amount of APM was detected | APM in the intestine, liver, and kidneys ([2]; rats, tail vein administration of AP (24 mg/kg)): undetectable | concentration of APM in tissues ([3]; ABX-treated mice vs Control, AP 100 mg/kg oral): decreased | concentration of APM in tissues ([3]; mice colonized with D. piger vs Control, AP 100 mg/kg p.o.): increase | level of APM in the intestine and liver ([3]; mice of pharmacological experiment, AP 200 mg/kg, following ABX treatment vs Control): decreased significantly | APM within the small intestine and liver ([3]; mice, AP 200 mg/kg p.o. with APS reductase inhibitor vs without): decrease | APM in all tissues ([3]; mice, oral administration of AP (100 mg/kg)): significant amount of APM was detected | APM in the intestine, liver, and kidneys ([3]; mice, tail vein administration of AP (20 mg/kg)): undetectable | APM generation ([4]; autoclaved duodenal perfusate): not detectable | APM generation ([4]; autoclaved perfusate with addition of HSO3^− (80 μM), 120 min): production of APM | APM generation ([4]; duodenal perfusate after filtration and ultrafiltration): continued APM generation
Compound: C=C1CCC2C(C)(CO)C(O)CCC2(C)C1CC(C1=CCOC1=O)S(=O)(=O)O [APM, 14-deoxy-12(R)-sulfo andrographolide]
APM generation [5]: large amounts

Compound: CC[C@H]1[C@@H](O)[C@@H]2[C@H](CC[C@]3(C)[C@@H]([C@H](C)CCC(=O)O)CC[C@@H]23)[C@@]2(C)CC[C@@H](O)C[C@@H]12 [OCA, obeticholic acid]
pruritus, share of treated patients [6]: roughly 40%

Compound: CC(C)C[C@H]1C(=O)N2CCC[C@H]2[C@]2(O)O[C@](NC(=O)[C@@H]3C=C4c5cccc6[nH]c(Br)c(c56)C[C@H]4N(C)C3)(C(C)C)C(=O)N12 [bromocriptine mesylate]
effect on conversion of AP into APM by the intestinal flora ([7]; AP 10 μg/mL, 6 h): effectively impeded | concentrations of APS reductase and HSO3^− ([7]; co-culture of AP with cecum samples): significant decrease | effect on D. piger metabolism of AP into APM (APS reductase and HSO3^− production) [8]: significantly inhibited | HSO3^− content in the cecum ([1]; bromocriptine mesylate 20 mg/kg p.o.): decrease | APS reductase level [9]: decrease | damage to organism (liver function, renal function, blood lipid indicators) [10]: did not induce damage to organism
